Reference: patent US20050026903A1, “CCK-1 receptor modulators” (priority 2003, published 2005)
Structures can show the parent of a compound that is named as a salt. Where two headings read alike, the source gives them in different places. One block for each compound: values may come before it.

Columns and labels:
CCK-1 receptor = biological target: T1, CCK-1 receptor (Homo sapiens, UniProt P32238); experiment: CCK-1 receptor radioligand binding assay ([125I]-BH-CCK-8S competition, membranes of stably transfected CHO-K1 cells)
T1 construct: expressed in transfected cells; membranes
T1 sequence (P32238 1-428): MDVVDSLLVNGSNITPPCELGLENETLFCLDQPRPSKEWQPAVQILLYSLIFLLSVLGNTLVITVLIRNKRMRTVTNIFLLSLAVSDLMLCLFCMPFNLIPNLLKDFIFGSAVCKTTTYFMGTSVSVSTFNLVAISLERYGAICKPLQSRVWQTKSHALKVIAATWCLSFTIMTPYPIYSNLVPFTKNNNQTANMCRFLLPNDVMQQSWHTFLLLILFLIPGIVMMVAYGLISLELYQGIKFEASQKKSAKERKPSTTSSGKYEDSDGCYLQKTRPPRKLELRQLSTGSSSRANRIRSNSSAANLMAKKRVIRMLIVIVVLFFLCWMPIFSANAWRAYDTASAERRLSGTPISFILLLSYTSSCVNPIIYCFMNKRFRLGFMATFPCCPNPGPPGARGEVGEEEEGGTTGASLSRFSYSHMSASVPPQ
Procedure: CHO-K1 cells that had undergone stable transfection with the CCK-1 receptor were grown in DMEM supplemented with L-glutamine (2 mM), penicillin (50 units/mL) and streptomycin (50 μg/mL). Cells were cultured under continuous G418 selection (2 mM) and were harvested using a rubber cell scraper. CHO-K1 cells were sub-cultured a maximum of ten times before being reseeded from the original stocks.
Membranes were prepared from the stably transfected CHO-K1 cells. Frozen cell pellets (−40° C.) were thawed in 14 mL of buffer A (10 mM HEPES, 130 mM NaCl, 4.7 mM KCl, 5 mM MgCl, 1 mM EGTA and 15.4 mg/100 mL bacitracin at pH 7.2), adapted from Harper et al. (Br. J. Pharmacol. (1996) 118, pp 1717-1726). The thawed pellets were homogenized using a Polytron PT-10 (7×1 s). […]
All assays were conducted in 96-well plates (GF/B millipore filter plates) using buffer A, with 0.3 μM PD-134,308, for the dilutions. […] Total binding of [125I]—BH—CCK-8S was determined in the presence of 15 μL of buffer A. Non-specific binding of [125I]—BH—CCK-8S was determined in the presence of 15 μL of 100 μM 2-naphthalenesulphonyl L-aspartyl-(2-phenethyl)amide (2-NAP: see R. A. Hull et al., Br. J. Pharmacol. (1993) 108, pp 734-740), a CCK-1 receptor selective antagonist that is structurally unrelated to the radioligand [125I]—BH—CCK-8S. […] Bound radioactivity was determined using a gamma counter (count time=1 min). […]

SMILES: COc1ccc(-n2nc(C[C@H](C([O])=O)c3cccc(C)c3)cc2-c2ccc(Cl)c(Cl)c2)cc1 (as salt: sodium) [Example 1, (S)-Sodium; 3-[5-(3,4-dichloro-phenyl)-1-(4-methoxy-phenyl)-1H-pyrazol-3-yl]-2-m-tolyl-propionate]
melting point: 295.5 to 297.5 °C

SMILES: COc1ccc(-n2nc(C[C@H](C([O])=O)c3cccc(C)c3)cc2-c2ccc(Cl)c(Cl)c2)cc1 [Example 1, (S)-Sodium; 3-[5-(3,4-dichloro-phenyl)-1-(4-methoxy-phenyl)-1H-pyrazol-3-yl]-2-m-tolyl-propionate]
Ki (CCK-1 receptor): 10 nM

Ki (CCK-1 receptor; [125I]-BH-CCK-8S competition, membranes of CHO-K1 cells stably transfected with CCK-1 receptor, 0.3 μM PD-134,308 present, read-out: pKi (converted)): 6.31 nM
SMILES: COc1ccc(-n2nc(CC(C(=O)O)c3cccc4ccccc34)cc2-c2ccc3c(c2)OCO3)cc1 (racemic) [Example 27, 3-[5-Benzo[1,3]dioxol-5-yl-1-(4-methoxy-phenyl)-1H-pyrazol-3-yl]-2-naphthalen-1-yl-propionic acid]
